Test results: patent publication US20240174637A1, “DEGRADERS OF GRK2 AND USES THEREOF” (Sonata Therapeutics, Inc., priority 2021, published 2024)
Where a name gives a salt, the structure may show the parent alone. Read-outs that look alike come from different tables or passages of the source.

Assays:
GRK2 [1] = molecular target: T1, GRK2 (Homo sapiens, UniProt P25098); experiment: GRK2 Inhibition Assay (TR-FRET, Example 1); format: biochemical
T1 sequence (P25098 1-689): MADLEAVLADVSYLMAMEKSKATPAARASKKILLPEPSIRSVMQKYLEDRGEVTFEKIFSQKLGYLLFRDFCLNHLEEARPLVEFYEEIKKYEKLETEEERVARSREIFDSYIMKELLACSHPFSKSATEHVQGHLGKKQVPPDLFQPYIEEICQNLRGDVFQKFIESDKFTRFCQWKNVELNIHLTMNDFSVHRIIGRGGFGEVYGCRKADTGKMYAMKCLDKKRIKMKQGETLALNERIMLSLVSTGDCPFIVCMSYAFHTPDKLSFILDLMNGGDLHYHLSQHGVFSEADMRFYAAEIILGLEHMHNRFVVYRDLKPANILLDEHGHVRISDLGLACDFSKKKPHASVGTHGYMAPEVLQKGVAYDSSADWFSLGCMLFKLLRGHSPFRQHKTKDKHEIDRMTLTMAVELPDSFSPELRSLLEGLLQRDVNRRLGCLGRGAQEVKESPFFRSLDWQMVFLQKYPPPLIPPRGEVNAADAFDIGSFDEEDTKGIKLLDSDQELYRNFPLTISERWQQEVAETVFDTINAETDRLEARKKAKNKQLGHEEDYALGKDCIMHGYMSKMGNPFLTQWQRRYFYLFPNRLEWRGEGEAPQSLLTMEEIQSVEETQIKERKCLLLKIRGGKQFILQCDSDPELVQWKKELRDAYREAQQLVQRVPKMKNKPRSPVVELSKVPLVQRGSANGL
How it was run: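 TR-FRET phosphorylation readout: Eu anti-TopoIIα antibody with EDTA added after a 90 min RT kinase reaction of 1 nM GRK2, 7 μM ATP and 50 nM ULight-TopoIIα. Compounds were pre-incubated with enzyme 30 min at room temperature beforehand.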

GRK2 [2] = molecular target: T1, GRK2; experiment: GRK2 Degradation Assay and Western Blot in PAXF1657 cells; format: cell-based; design: endogenous in cells; host or cells: PAXF1657; conditions: for GRK2 degradation, dose dependence (FIGS. 1A-1D): 24-hour treatment in PAXF1657 cells
How it was run: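 GRK2 degradation judged by immunoblot: NP40 lysates separated by SDS-PAGE and probed for GRK2 and β-actin, with HRP/ECL detection. Lysates came from PAXF1657 cells exposed to 0–10 μM compound for 6–24 h after reaching 70% confluency.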

PAXF1657 EV = experiment: 7-day cellular proliferation assay (CellTiter-Glo), PAXF1657 EV; format: cell-based
How it was run: (§1)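 Cells plated at 500 per well and attached overnight. Next, 10-point inhibitor series added (30 μM-0.0002 μM, 0.3% DMSO) and a day-0 viability plate read. Then, after 3 days, medium with fresh compound. Finally, viability after 4 more days via CellTiter-Glo.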

PAXF1657 KO Clone #4 = experiment: 7-day cellular proliferation assay (CellTiter-Glo), PAXF1657 KO Clone #4; format: cell-based
How it was run: as §1

[3] = TR-FRET, 7 μM ATP, read-out: Enzymatic GRK2 Assay: IC50 (nM) (Example 1)
[4] = 0.3 uM, PAXF1657 EV, 24 hrs, read-out: % GRK2 degradation at 0.3 uM in PAXF1657 EV (24 hrs)
[5] = 1 uM, PAXF1657 EV, 24 hrs, read-out: % GRK2 degradation at 1 uM in PAXF1657 EV (24 hrs)
[6] = 3 uM, PAXF1657 EV, 24 hrs, read-out: % GRK2 degradation at 3 uM in PAXF1657 EV (24 hrs)
[7] = 168 h, 7-day, read-out: 7-day proliferation assay: IC50 GeoMean (uM) [Cell Line: PAXF1657 EV]
[8] = 168 h, 7-day, read-out: 7-day proliferation assay: IC50 GeoMean (uM) [Cell Line: PAXF1657 KO Clone #4]
[9] = Table 4, Example 1 assay, read-out: Enzymatic GRK2 IC50: Av IC50 GRK2
[10] = Conc 0.3 uM, read-out: Degradation Assay - 3 point: Degradation (%)
[11] = Conc 1 uM, read-out: Degradation Assay - 3 point: Degradation (%)
[12] = Conc 3 uM, read-out: Degradation Assay - 3 point: Degradation (%)
[13] = proliferation, read-out: GeoMean IC50 (UM) PAXF1657 EV
[14] = proliferation, read-out: GeoMean IC50 (uM) PAXF1657 KO Clone #4

| Compound | IC50 (GRK2 [1]; [3]) [nM] | % GRK2 degradation at 0.03 uM in PAXF1657 EV (24 hrs) (GRK2 [2]; PAXF1657 EV, 24 hrs) [%] | % GRK2 degradation at 0.1 uM in PAXF1657 EV (24 hrs) (GRK2 [2]; PAXF1657 EV, 24 hrs) [%] | inhibition at 0.3 µM (GRK2 [2]; [4]) [%] | inhibition at 1 µM (GRK2 [2]; [5]) [%] | inhibition at 3 µM (GRK2 [2]; [6]) [%] | % GRK2 degradation at 10 uM in PAXF1657 EV (24 hrs) (GRK2 [2]; PAXF1657 EV, 24 hrs) [%] | GRK2 degradation, dose dependence (FIGS. 1A-1D) (GRK2 [2]) | IC50 (PAXF1657 EV; [7]) [µM] | IC50 (PAXF1657 KO Clone #4; [8]) [µM] | IC50 (GRK2 [1]; [9]) [nM] | inhibition at 0.3 µM (GRK2 [2]; [10]) [%] | inhibition at 1 µM (GRK2 [2]; [11]) [%] | inhibition at 3 µM (GRK2 [2]; [12]) [%] | DC50 (GRK2 [2]; PAXF1657, 24 h, read-out: Degradation Assay - Full Dose Response: IC50 (uM) [cell line: PAXF1657, time point: 24 h]) [µM] | IC50 (PAXF1657 EV; [13]) [µM] | IC50 (PAXF1657 KO Clone #4; [14]) [µM] |
| --- | --- | --- | --- | --- | --- | --- | --- | --- | --- | --- | --- | --- | --- | --- | --- | --- | --- |
| CC(NC(=O)c1cccc(NCc2nnc(-c3ccncn3)n2C)c1)c1cccc(OCCCCCCOCCOCCOCCCCCC(=O)Nc2cccc3c2CN(C2CCC(=O)NC2=O)C3=O)c1 (stereo not drawn) [Compound D67, N-(1-(3-((6-(2-(2-((6-((2-(2,6-dioxopiperidin-3-yl)-1-oxoisoindolin-4-yl)amino)-6-oxohexyl)oxy)ethoxy)ethoxy)hexyl)oxy)phenyl)ethyl)-3-(((4-methyl-5-(pyrimidin-4-yl)-4H-1,2,4-triazol-3-yl)methyl)amino)benzamide] | < 100 | 38 | 60 | 74 | 87 | 90 | 83 | Dose dependent | 1 to 10 | > 10 | – | – | – | – | – | – | – |
| Cc1ncsc1-c1ccc(CNC(=O)[C@@H]2C[C@@H](O)CN2C(=O)[C@@H](NC(=O)CCCCCOCCOCCOCCCCCCOc2cccc([C@@H](C)NC(=O)c3cccc(NCc4nnc(-c5ccncn5)n4C)c3)c2)C(C)(C)C)cc1 [Compound D79, (2S,4R)-1-((S)-2-(tert-butyl)-22-(3-((R)-1-(3-(((4-methyl-5-(pyrimidin-4-yl)-4H-1,2,4-triazol-3-yl)methyl)amino)benzamido)ethyl)phenoxy)-4-oxo-10,13,16-trioxa-3-azadocosan-1-oyl)-4-hydroxy-N-(4-(4-methylthiazol-5-yl)benzyl)pyrrolidine-2-carboxamide] | < 100 | – | – | 52 | 54 | 8 | – | – | < 1 | > 10 | – | – | – | – | – | – | – |
| C[C@@H](NC(=O)c1cccc(NCc2nnc(-c3ccncn3)n2C)c1)c1cccc(OCCCN2CCN(c3ccc4c(c3)CN(C3CCC(=O)NC3=O)C4=O)CC2)c1 (stereo partly drawn) [Compound D123, N-((1R)-1-(3-(3-(4-(2-(2,6-dioxopiperidin-3-yl)-1-oxoisoindolin-5-yl)piperazin-1-yl)propoxy)phenyl)ethyl)-3-((4-methyl-5-(pyrimidin-4-yl)-4H-1,2,4-triazol-3-yl)methylamino)benzamide hydrochloride] | – | – | – | – | – | – | – | – | – | – | 6.56 | 81.6 | 85.2 | 84 | 0.03 | < 0.000458 | > 30 |
| Cc1ncsc1-c1ccc(CNC(=O)[C@@H]2C[C@@H](O)CN2C(=O)[C@@H](NC(=O)CCCCCOCCOCCOCCCCCCOc2cccc([C@H](C)NC(=O)c3cccc(NCc4nnc(-c5ccncn5)n4C)c3)c2)C(C)(C)C)cc1 [Compound D153] | – | – | – | – | – | – | – | – | – | – | 125 | 10 | 12 | 18 | – | 0.34 | 6.82 |
| Cc1ncsc1-c1ccc(CNC(=O)[C@@H]2C[C@@H](O)CN2C(=O)[C@@H](NC(=O)CCCOCCOCCOCCCCCCOc2ccc([C@@H](C)NC(=O)c3cccc(NCc4nnc(-c5ccncn5)n4C)c3)cc2)C(C)(C)C)cc1 [Compound D116] | – | – | – | – | – | – | – | – | – | – | 6.6 | 15 | 30 | -40 | – | 1.88 | 7.48 |
| C[C@@H](NC(=O)c1cccc(NCc2nnc(-c3ccncn3)n2C)c1)c1ccc(OCC(=O)N2CCN(c3ccc4c(c3)CN(C3CCC(=O)NC3=O)C4=O)CC2)cc1 (stereo partly drawn) [Compound D177, N-((1R)-1-(4-(2-(4-(2-(2,6-dioxopiperidin-3-yl)-1-oxoisoindolin-5-yl)piperazin-1-yl)-2-oxoethoxy)phenyl)ethyl)-3-((4-methyl-5-(pyrimidin-4-yl)-4H-1,2,4-triazol-3-yl)methylamino)benzamide] | – | – | – | – | – | – | – | – | – | – | 10.2 | 13.2 | 20.9 | 36.8 | – | 27 | > 30 |
| C[C@@H](NC(=O)c1cccc(NCc2nnc(-c3ccncn3)n2C)c1)c1cccc(C(=O)N2CC(N3CCN(c4ccc5c(c4)CN(C4CCC(=O)NC4=O)C5=O)CC3)C2)c1 (stereo partly drawn) [Compound D172] | – | – | – | – | – | – | – | – | – | – | 104 | -7.47 | -8.22 | -15.9 | – | 14.1 | > 30 |
| Cn1c(CNc2cccc(C(=O)NCc3cc(OCCCCCCOCCOCCOCCCCCC(=O)Nc4cccc5c4CN(C4CCC(=O)NC4=O)C5=O)ccc3F)c2)nnc1-c1ccncn1 (stereo not drawn) [Compound D66, N-(5-((6-(2-(2-((6-((2-(2,6-dioxopiperidin-3-yl)-1-oxoisoindolin-4-yl)amino)-6-oxohexyl)oxy)ethoxy)ethoxy)hexyl)oxy)-2-fluorobenzyl)-3-(((4-methyl-5-(pyrimidin-4-yl)-4H-1,2,4-triazol-3-yl)methyl)amino)benzamide] | < 100 | 8 | 8 | 40 | 55 | 71 | 58 | Dose dependent | > 10 | > 10 | – | – | – | – | – | – | – |
| Cc1ncsc1-c1ccc(CNC(=O)[C@@H]2C[C@@H](O)CN2C(=O)[C@@H](NC(=O)CCCCCOCCOCCOCCCCCCOc2cccc([C@H](C)NC(=O)c3cccc(NCc4nnc(-c5ccncn5)n4C)c3)c2)C(C)(C)C)cc1 [Compound D78, (2S,4R)-1-((S)-2-(tert-butyl)-22-(3-((S)-1-(3-(((4-methyl-5-(pyrimidin-4-yl)-4H-1,2,4-triazol-3-yl)methyl)amino)benzamido)ethyl)phenoxy)-4-oxo-10,13,16-trioxa-3-azadocosan-1-oyl)-4-hydroxy-N-(4-(4-methylthiazol-5-yl)benzyl)pyrrolidine-2-carboxamide] | < 100 | – | – | -12 | -21 | -18 | – | – | < 1 | 1 to 10 | – | – | – | – | – | – | – |
| C[C@@H](NC(=O)c1cccc(NCc2nnc(-c3ccncn3)n2C)c1)c1cccc(OCCCCCOCCCOCCOc2cccc3c2CN(C2CCC(=O)NC2=O)C3=O)c1 (stereo partly drawn) [Compound D198, N-((1R)-1-(3-((5-(3-(2-((2-(2,6-dioxopiperidin-3-yl)-1-oxoisoindolin-4-yl)oxy)ethoxy)propoxy)pentyl)oxy)phenyl)ethyl)-3-(((4-methyl-5-(pyrimidin-4-yl)-4H-1,2,4-triazol-3-yl)methyl)amino)benzamide] | – | – | – | – | – | – | – | – | – | – | 22.1 | 83.9 | 81.6 | 50.3 | – | 0.01 | > 30 |
